≈ marks a conversion by molar mass, not a printed value.

The conditions of the series: buffer; pH 7.4; 200.0 µM.
Consider `Cc1ccc(S(=O)(=O)NC2CC2)s1`, for which the solubility (kinetic) was over 32.6 µg/mL.

In the case of `CC(CCc1ccccc1)NC(=O)CNc1cccc([N+](=O)[O-])c1` (stereo unspecified), the kinetic solubility was over 49.1 µg/mL.

In turn, `COc1ccc(CCN2C(=O)CSC2=S)cc1OC` gave a solubility (kinetic) of 6.1 µg/mL (≈ 20.5 µM).

`CCOC(=O)c1ccc(S(=O)(=O)Nc2cc(S(=O)(=O)N3CCOCC3)ccc2O)cc1` had a solubility (kinetic) of 69.5 µg/mL (≈ 148 µM).

Molecule `CC(C)N(C(=O)Cc1ccccc1[N+](=O)[O-])C(C)C` registered a solubility (kinetic) of over 39.6 µg/mL.

Consider `S=c1[nH]ccn1Cc1ccccc1`, for which the kinetic solubility was over 28.5 µg/mL.

Molecule `CCN(C(=O)CSc1nc(C)cc(=O)[nH]1)C1CCCCC1` came in with a solubility (kinetic) of over 46.4 µg/mL.

`CCn1cc(S(=O)(=O)NC2CCCCC2)cn1` registered a kinetic solubility of over 38.6 µg/mL.

Regarding `Cc1nc2ccccc2c2oc(C(=O)N3CC(C)CC(C)C3)cc12` (stereo unspecified), the solubility (kinetic) stood at 35.5 µg/mL (≈ 110 µM).

With `Cc1cccc(NC(=S)NC(=O)Cc2ccccc2)c1C`, the solubility (kinetic) turned out to be 1.1 µg/mL (≈ 3.69 µM).

The molecule `COc1cc([N+](=O)[O-])cc2sc(NC(=O)C3CC3)nc12` came in with a solubility (kinetic) of 0.6 µg/mL (≈ 2.05 µM).

The molecule `CCOc1ccc2nc(SCC(=O)Nc3cc(C)on3)c(C)cc2c1` yielded a solubility (kinetic) of under 0.3 µg/mL.

Turning to `O=C(CCNc1cccc(F)c1)c1cc2ccccc2o1`, the solubility (kinetic) was under 0.6 µg/mL.

For the molecule `O=C(NC(=O)c1ccccc1)Nc1ccccc1O`, the kinetic solubility stood at 2.1 µg/mL (≈ 8.19 µM).

Molecule `Clc1ccc(C2Nc3cccc4cccc(c34)N2)cc1Cl` yielded a kinetic solubility of 0.4 µg/mL (≈ 1.27 µM).

As to `O=C(CN1C(=O)NC2(CCc3ccccc32)C1=O)Nc1ccccc1Cl` (stereo unspecified), the solubility (kinetic) is over 55.5 µg/mL.

`Cc1c(Cl)cccc1NC(=O)CC(Cc1ccccc1)C(=O)O` (stereo unspecified) showed a solubility (kinetic) of over 49.8 µg/mL.

Regarding `O=C(CNC(=O)c1ccc(Cl)cc1Cl)OCCOc1ccccc1F`, the solubility (kinetic) was found to be 51.2 µg/mL (≈ 133 µM).

In turn, `O=C(C1CCN(S(=O)(=O)c2cccs2)CC1)N1CCCCC1` returned a kinetic solubility of over 51.4 µg/mL.

For the molecule `COC(c1ccccc1)(c1ccccc1)C(Oc1nccc(C)n1)C(=O)O` (stereo unspecified), the kinetic solubility was determined as 51 µg/mL (≈ 140 µM).

`CCc1nc(C(N)=O)c2[nH]c(=O)n(-c3ccccc3F)c2n1`: the kinetic solubility is 10.2 µg/mL (≈ 33.9 µM).

Molecule `O=c1c(Cc2ccccc2)c(O)ccn1Cc1ccc2c(c1)OCO2` returned a kinetic solubility of 2.7 µg/mL (≈ 8.05 µM).

Take `CCCc1cc(=O)[nH]c(SCC(=O)Nc2ccc(OC)c(S(=O)(=O)N3CCCCC3)c2)n1`: the solubility (kinetic) turned out to be 13.8 µg/mL (≈ 28.7 µM).

In the case of `O=C(COC(=O)c1c[nH]c2ccccc12)NC1CCCC1`, the solubility (kinetic) is over 42.9 µg/mL.

In the case of `COc1ccc(NC(=O)c2ccc(NC(=O)CN3CCN(c4ccccc4)CC3)cc2)cc1`, the solubility (kinetic) turned out to be 1.4 µg/mL (≈ 3.15 µM).

`O=S(=O)(Nc1ccc(F)cc1)c1cccc2nsnc12` returned a kinetic solubility of over 46.4 µg/mL.

`O=C(Cc1ccccc1)Nc1ccc(NC(=O)c2ccccc2)nc1` registered a solubility (kinetic) of 5.2 µg/mL (≈ 15.7 µM).

In turn, `CC1CN(C(=O)/C=C/c2ccccc2Cl)CC(C)O1` (stereo unspecified) came in with a solubility (kinetic) of 36.5 µg/mL (≈ 130 µM).

In turn, `O=C(NC1CCN(Cc2ccc(Cl)cc2Cl)CC1)c1ccccc1` registered a kinetic solubility of 2.3 µg/mL (≈ 6.33 µM).

`c1coc(CN2CNc3nc4ccccc4n3C2)c1` yielded a solubility (kinetic) of 35.2 µg/mL (≈ 138 µM).

`Cc1c(C(=O)O)[nH]c2c1C(=O)CC(c1ccc(C(C)(C)C)cc1)C2` (stereo unspecified) returned a kinetic solubility of over 48.8 µg/mL.

Regarding `Cl.O=C(NCCN1CCCC1)c1ccc(Br)cc1`, the kinetic solubility was over 50 µg/mL.

As for `CCN(c1ccccc1)S(=O)(=O)c1ccc(C(=O)N2CCOCC2)cc1`, the kinetic solubility is over 56.2 µg/mL.

As to `CNC(=O)CN1C(=O)NC(Cc2c[nH]c3ccccc23)C1=O` (stereo unspecified), the kinetic solubility is over 45 µg/mL.

As to `CCNC(=O)COC(=O)/C=C/c1cccc(F)c1`, the solubility (kinetic) was over 37.7 µg/mL.

In turn, `CCN(CC)C(=O)c1cccc2nc3ccccc3nc12` gave a kinetic solubility of over 41.9 µg/mL.

In turn, `CCc1c(C(=O)Nc2ccc(C)c(C)c2)[nH]c(C)c1C(C)=O` displayed a kinetic solubility of 3 µg/mL (≈ 10.1 µM).

`CSc1cccc(NC(=S)N2CCC(c3ccccc3)C2)c1` (stereo unspecified) came in with a kinetic solubility of 2.2 µg/mL (≈ 6.7 µM).

Molecule `CC(C)(C)c1cc(-c2ccccc2)no1` yielded a solubility (kinetic) of 0.8 µg/mL (≈ 3.97 µM).

Molecule `N#Cc1ccc(CN2CCN(C(=O)CNS(=O)(=O)c3ccc4c(c3)OCCCO4)CC2)cc1` returned a solubility (kinetic) of 35.3 µg/mL (≈ 75 µM).

In turn, `CCOC(=O)NC(=O)CSc1ccc2ccccc2n1` gave a kinetic solubility of 42.5 µg/mL (≈ 146 µM).

The molecule `CC(=O)Nc1c(NC(C)(C)C)c2ccccc2oc1=O` returned a kinetic solubility of over 41.1 µg/mL.

In turn, `CC(C)(c1ccccc1)c1ccc(OCCN2CCCC2)cc1` returned a solubility (kinetic) of 29.2 µg/mL (≈ 94.4 µM).

`Cc1nc([N+](=O)[O-])cn1CC(=O)Nc1ccc([N+](=O)[O-])cc1` showed a kinetic solubility of 1.3 µg/mL (≈ 4.26 µM).

In turn, `CC(C)c1nc2sc3c(=S)nc[nH]c3c2c2c1CCC2` displayed a solubility (kinetic) of 4.5 µg/mL (≈ 14.9 µM).

The molecule `Cc1ccc(C)c(SCC(=O)Nc2cccc(S(=O)(=O)N3CCOCC3)c2)c1` showed a solubility (kinetic) of 21.4 µg/mL (≈ 50.9 µM).

`CC(=O)c1c(C)n(CCc2ccc(Cl)cc2)c2ccc(O)cc12`: the kinetic solubility was under 0.7 µg/mL.

The molecule `Cc1ccc(CC(=O)Nc2cc(C)on2)cc1` displayed a solubility (kinetic) of 14 µg/mL (≈ 60.8 µM).

In the case of `CC(C)N1CCN(Cc2cccc3nonc23)CC1CCO` (stereo unspecified), the solubility (kinetic) was determined as 42.2 µg/mL (≈ 139 µM).

`Cc1ccc(/C(O)=C2\C(=O)C(=O)N(C)C2c2ccc(F)cc2)cc1` (stereo unspecified): the kinetic solubility was over 48.8 µg/mL.

`O=C(NCCc1ccccc1)C1(S(=O)(=O)c2ccc(Cl)cc2)CC1` gave a solubility (kinetic) of 33.9 µg/mL (≈ 93.2 µM).

Values taken from PubChem BioAssay AID1996.
